Experimental data published in patent US20240124510A1, “Cyclic Glycoaminoacid Derivatives” (TFCHEM, priority 2021, published 2024).
Several values for one entry are separate records, joined by “and”; a condition that tells them apart may be missing. Equal entries are not always repeated.

Tests used:
IL-6 = assay: Extracellular secretion of IL-6 by preadipocytes in inflammatory condition (ELISA); assay type: cell-based, human; details: for IL-6 secretion, Mean / IL-6 secretion, Values: normalized by cells number (DAPI); for IL-6 secretion, Values: individual values; for IL-6 secreted, normalized by cell number, in % of AcMC condition: preadipocytes/adipocytes
Method: Preadipocytes have been isolated from human female hypodermis (body mass index <30 kg/m2 and <45 years old). Preadipocytes have been cultured for 24 h in 100 μl of DMEM-10% Fetal Bovine Serum (FBS) in 96-well plates. Then cells were treated to induce their differentiation in a classical or an inflammatory environment for 13 days.
To induce the preadipocytes differentiation cells were incubated in a proadipogenic cocktail (PAC) including insulin, glucocorticoid, 3-isobutyl-1-methylxanthine (IBMX), and thiazolinedione in DMEM.
To induce a fibro-inflammatory environment, cells were treated with an activated human macrophage-conditioned medium (AcMC) prepared in RPMI medium. A treatment with Dexamethasone (DXM) at 100 nM was used as anti-inflammatory response control. At D0: preadipocytes have been treated in the following conditions: • “Undifferentiation”: DMEM+¼ RPMI medium • “Differentiation”: PAC+¼ RPMI medium • “AcMC” i.e. inflammatory condition: PAC+¼ AcMC • “AcMC+DXM”: PAC+[…] AcMC+anti-inflammatory DXM at 100 nM • “AcMc+compounds”: PAC+14 AcMC+compounds to be tested
All conditions have been performed in triplicate. The medium has been changed every 2 days for 13 days.
At D14: during the last 24 h of culture, the medium has been replaced by DMEM/F12 medium in all conditions, to collect cells' secretions.
After 13 days, the 24 h culture media of the different conditions have been collected at the end of the treatment period. The concentrations of IL-6, procollagen I and MCP1 have been evaluated by ELISA assays using specific kits (for IL-6: DY206, DuoSet ELISA, R&D Systems; for Procollagen I: DY6220-05, DuoSet ELISA, R&D Systems; for MCP1: DY279-05 DuoSet ELISA, R&D Systems) according to the manufacture's recommendations. Values have been normalized to the cell number determined by DAPI staining.
Quantity of IL-6 secreted in medium was measured and was normalized by cell number in each culture condition. Data are represented in percentage of proinflammatory control condition (AcMC condition).

[1] = system: Normal human epidermal keratinocytes (NHEK); assay: Total lipid neosynthesis in NHEK ([14C]-acetate incorporation); assay type: cell-based; details: 48 hours; for [14C]-Acetate (cpm): individual replicates
Method: Normal human epidermal keratinocytes (NHEK) were seeded in 12-well plates and incubated in culture medium for 24 hours. The medium was then replaced by culture medium containing or not (control) the test compounds or the reference (CaCl2+Vitamin C at 1.5 mM+200 μg/ml respectively) in the presence of the radioactive tracer [^14C]-acetate. Cells were incubated for 48 hours. All experimental conditions were performed in triplicate.
Culture medium was Keratinocyte-SFM supplemented with Epidermal Growth Factor (EGF) 0.25 ng/ml, Pituitary extract (PE) 25 μg/ml and Gentamycin 25 μg/ml. The assay medium was Keratinocyte-SFM supplemented with Gentamycin 25 μg/ml.
At the end of incubation, cells were rinsed with PBS solution and then detached from their support by trypsin treatment. The [^14C]-acetate incorporation was then measured by liquid scintillation (measure of radioactivity). The incorporation is correlated with the total lipid neosynthesis. Results presented in Table 23 are expressed as cpm and % of control.

[2] = system: Normal human epidermal keratinocytes (NHEK); assay: Lipid peroxidation in NHEK under UV stimulation (C11-fluor probe, flow cytometry); assay type: cell-based; details: for % Irradiated control (lipid peroxidation) / % Protection (lipid peroxidation) / C11-fluor 1/GMFI Mean (AU) / C11-fluor 1/GMFI (AU) / C11-fluor GMFI (AU): irradiated UVB 300 mJ/cm^2 (+UVA 2.1 J/cm^2); for C11-fluor 1/GMFI (AU) / C11-fluor GMFI (AU): individual replicates
Method: Normal human epidermal keratinocytes were seeded in 48-well plates and cultured in culture medium for 24 hours and then in assay medium for a further 24 hours. The medium was then removed and replaced by assay medium containing or not (irradiated control) the test compounds or the reference (BHA—butylated hydroxyanisole, lipid peroxidation inhibitor—at 100 μM) and the cells were pre-incubated for 24 hours. After pre-incubation, the specific fluorescent probe for the measurement of lipid peroxides (C11-fluor) was added and the cells were incubated for 45 minutes. Then, the medium was removed and replaced by assay medium containing or not (irradiated control and test compound conditions) the reference and the cells were irradiated with UVB (+UVA)−300 mJ/cm^2 (+2.1 J/cm^2). The lamp used was a SOL500 Sun Simulator equipped with an H2 filter (Dr. Hbnle. AG). After irradiation, the medium was removed and replaced by assay medium containing or not (irradiated control) the test compounds or the reference and the cells were incubated for 30 minutes before flow cytometry analysis. A non-irradiated control condition was performed in parallel. All experimental conditions were performed in triplicate.
At the end of the incubation, in each well, the cells were trypsinized and transferred into specific tubes for the analysis of C11-fluor fluorescence intensity using a BD FACSVerse™ flow cytometer (acquisition of 2000 to 5000 events per tube). The C11-fluor fluorescent probe is a lipid analogue which integrates cell membranes. As the fluorescence intensity of this probe is decreased with oxidation, it is inversely proportional to the lipid peroxidation. In order to facilitate the result interpretation, the lipid peroxidation was expressed using the value “1/fluorescence intensity” in order to have a direct proportionality between the induction of lipid peroxidation and the values of “% of irradiated control”.
Results presented in Table 24 are expressed as fluorescence intensity and as […] of protection compared to the control.

Q: How did the “IL-6 secretion, Mean” value (IL-6; AcMC + 1 mg/ml) turn out when `N[C@H]1CCCN(CC(F)(F)[C@]2(O)O[C@H](CO)[C@H](O)[C@H](O)[C@H]2O)C1=O` [Compound 6] was run?
A: 84.0 % of AcMC condition

Q: What about the “IL-6 secretion, Values” (IL-6; AcMC + 1 mg/ml) of the same compound?
A: 66.1 % of AcMC condition and 95.1 % of AcMC condition and 90.8 % of AcMC condition

Q: What about the “IL-6 secretion, Mean” value (IL-6; AcMC + 2 mg/ml) of the same compound?
A: 28.1 % of AcMC condition

Q: And the “IL-6 secretion, Values” (IL-6; AcMC + 2 mg/ml)?
A: 25.5 % of AcMC condition and 26.8 % of AcMC condition and 31.9 % of AcMC condition

Q: What about the “IL-6 secreted, normalized by cell number, in % of AcMC condition” value (IL-6; 1 mg/ml) of the same compound?
A: 84%

Q: And the “IL-6 secreted, normalized by cell number, in % of AcMC condition” value (IL-6; 2 mg/ml)?
A: 28.1%

Q: What about the “IL-6 secreted, normalized by cell number, in % of AcMC condition” value (IL-6; 2 mg/ml, listed as compound 6) of the same compound?
A: 28.1% and 28%

Q: What about the “% Control (total lipid neosynthesis)” value ([1]; 1 mg/ml) of the same compound?
A: 110%

Q: And the “% Stimulation (total lipid neosynthesis)” value ([1]; 1 mg/ml)?
A: 10%

Q: And the “[14C]-Acetate Mean (cpm)” value ([1]; 1 mg/ml)?
A: 78584 cpm

Q: And the “[14C]-Acetate (cpm)” value ([1]; 1 mg/ml)?
A: 77267 cpm and 78905 cpm and 79581 cpm

Q: What about the “% Control (total lipid neosynthesis)” value ([1]; 3 mg/ml) of the same compound?
A: 121%

Q: What about the “% Stimulation (total lipid neosynthesis)” value ([1]; 3 mg/ml) of the same compound?
A: 21%

Q: And the “[14C]-Acetate Mean (cpm)” value ([1]; 3 mg/ml)?
A: 86022 cpm

Q: What about the “[14C]-Acetate (cpm)” value ([1]; 3 mg/ml) of the same compound?
A: 84794 cpm and 87349 cpm and 85922 cpm and 86860 cpm

Q: And the “Stimulation of lipid synthesis compared to the control” value ([1]; 1 mg/ml)?
A: 10%

Q: And the “Stimulation of lipid synthesis compared to the control” value ([1]; 3 mg/ml)?
A: 21%

Q: What about the “% Irradiated control (lipid peroxidation)” value ([2]; 1 mg/ml) of the same compound?
A: 66%

Q: And the “% Protection (lipid peroxidation)” value ([2]; 1 mg/ml)?
A: 37%

Q: What about the “C11-fluor 1/GMFI Mean (AU)” value ([2]; 1 mg/ml) of the same compound?
A: 5.6E−04 AU

Q: And the “C11-fluor 1/GMFI (AU)” value ([2]; 1 mg/ml)?
A: 4.7E−04 AU and 5.9E−04 AU and 6.2E−04 AU

Q: And the “C11-fluor GMFI (AU)” value ([2]; 1 mg/ml)?
A: 2118 AU and 1705 AU and 1608 AU

Q: What about the “% Irradiated control (lipid peroxidation)” value ([2]; 3 mg/ml) of the same compound?
A: 65%

Q: What about the “% Protection (lipid peroxidation)” value ([2]; 3 mg/ml) of the same compound?
A: 38%

Q: What about the “C11-fluor 1/GMFI Mean (AU)” value ([2]; 3 mg/ml) of the same compound?
A: 5.6E−04 AU

Q: What about the “C11-fluor 1/GMFI (AU)” value ([2]; 3 mg/ml) of the same compound?
A: 4.7E−04 AU and 5.1E−04 AU and 7.0E−04 AU

Q: What about the “C11-fluor GMFI (AU)” value ([2]; 3 mg/ml) of the same compound?
A: 2143 AU and 1970 AU and 1426 AU

Q: What about the “Protection on lipid peroxidation (compared to the control)” value ([2]; NHEK irradiated with UVB (+UVA) 300 mJ/cm2 (+2.1 J/cm2), concentration not given) of the same compound?
A: 38%
